Experimental data reported in patent US11464840B2, “Universal non-classical MHC I vaccines: HLA-E-restricted antigenic peptides as universal vaccines to treat allergy, inflammation, autoimmune and infectious diseases, and cancers” (priority 2019, dated 2022).
Several values for one entry are separate records, joined by “and”; a condition that tells them apart may be missing. Equal values may be shown once. Ends that are not written are not given here.

Columns and labels:
HLA-E = test: Surface HLA-E expression in immature MoDC cells (FACS); type: cell-based, human; settings: 100 nM SR11237, 100 nM Bexarotene or Interferon-β 1,000 U, 4 days
Method: FIG. 5. […] MoDCs were then collected and stained with fluorescence-conjugated antibody; APC-conjugated anti-CD83 (Biolegend) and PE-conjugated HLA-E (Biolegend) followed by fixation with 2% paraformaldehyde. Phenotype and HLA-E expression of MoDCs were performed by using a FACS, LRSII flow cytometry and the data were processed by using the Flowjo software.

HLA-G [1] = test: Surface HLA-G expression in immature MoDC cells (FACS); type: cell-based, human; settings: 100 nM SR11237, 100 nM Bexarotene or Interferon-β 1,000 U, 4 days
HLA-G [2] = test: Surface HLA-G expression of CD8 T cells co-cultured with peptide-pulsed MoDCs (FACS); type: cell-based, human; settings: immature and mature MoDC pulsed with A2 peptides of IgE epitope, SR11237 100 nmol/L, co-culture 5 days
Method: FIG. 7. Modulation of HLA-G by RXR agonist. Surface HLA-G expression of CD8 T cells was observed induced by RXRα agonist, SR11237 (100 nmol/L)-treated immature (A) and mature (B) MoDCs in presence of A2 mix peptides (Biomatik). MoDCs isolated from A2 type of PBMCs, were cultured in 10% FBS RPMI with 200 U/ml IL-4 and 100 U/ml GM-CSF for 5 days as immature MoDCs and then proceeded for maturation with addition of cytokines cocktail containing TNFα (10 ng/ml), PGE2 (1 μg/ml), IL-6 (150 ng/ml) and IL-1β (5 ng/ml) (Biolegend) for another two days. Both mature and immature MoDC were incubated with SR11237 for 2 days and pulsed with A2 peptides of IgE epitope for 4 hr. Then MoDCs were co-cultured in anti-CD3 (10 μg/ml) coated plate for 5 days with T cells isolated from PBMCs by adhering PBMC to 100×20 mm plate and collecting suspended cells. Cells were then collected and stained with Alex Fluor 488-conjugated human CD8 and PE-Cy 7-conjugated human HLA G followed by fixation with 2% paraformaldehyde. Phenotype and HLA G expression of T cells were performed by using a FACS, LRSII flow cytometry, data were processed as describe above.

Derlin-1 mRNA [3] = test: Derlin-1 mRNA knockdown by siRNA in monocyte-derived dendritic cells (qPCR, ΔΔCt); type: cell-based, human; settings: for Derlin-1 mRNA knockdown (KD): MODC
Method: (§1) Table 1: Summary of Derlin-1 Knockdowns with Various siRNAs. Cells transfected in 12 well plate at 60%-80% confluency. one ul Viromer blue was used per 1 ml final volume. Cells were lysed via centrifugation and resuspended in TRI reagent at time points of either 6 h, 24 h, and 48 h. Lysates were split for both protein verification and qPCR. Knockdowns are estimated using the ΔΔCt method. […] Anti-Derlin-1 siRNA was designed using MITs website (sirna.wi.mit.edu) and siRNA design software (dharmacon.horizondiscovery.com/rnai/sirna). SiRNA were chosen based on the criteria that they would bind no more than 15 nucleotides on off-target mRNA and that they would be capable of knockdown for all four of the Derlin-1 mRNA isoforms. Additionally, siRNAs with 40-60% GC content, no more than 3 identical nucleotides in a row, and 3′ UU overhangs were used. The first siRNA (SEQ ID NO: 65, 5′-[…]-3′) was purchased from TriLink Biotechnologies and the second (SEQ ID NO: 66, 5′-[…]-3′) was purchased from Horizon Discovery. A third, modified siRNA with sequence 5′-SEQ ID NO: 67, O′me/G/O′me/[…]-3′ and DNA bases on the 1st and 8th nucleotide of the antisense strand was also designed and purchased from Horizontal Discovery. Scramble siRNAs were purchased from Horizontal Discovery (D-001810-10-05, ON-TARGET plus Non-targeting Pool).
(§2) Derlin-1 forms an integral part of the […] machinery required for transporting classical MHCI, e.g., HLA-A, -B, -C for proteasome degradation. […] In contrast, the protein band of Derlin-1 is entirely missing in Derlin-1 siRNA-treated MoDCs. Transfection of the primary cells were performed using PEI reagents (Viromer Blue vs. Viromer Red). The embodiment of the invention is three-fold. One aspect of the embodiment resides in treating APC with Derlin-1 RNA interference to prevent the generation of endogenous leader peptide as well as to cause dissociation of the HLA-E bound endogenous leader peptides so that Derlin-1-treated APC can be fully loaded with the HLA-E vaccines in the presence of the second costimulatory signal for immune induction.

Derlin-1 mRNA [4] = test: Derlin-1 mRNA knockdown by siRNA in T2 cells (qPCR, ΔΔCt); type: cell-based, human; settings: for Derlin-1 mRNA knockdown (KD): 6 Hours
Method: as §1, with “Pool). […]” for “Pool).”

Derlin-1 mRNA [5] = test: Derlin-1 mRNA knockdown by siRNA in B721.221 cells (qPCR, ΔΔCt); type: cell-based, human; settings: 6 hours
Method: as §1, with “Pool). […]” for “Pool).”

Derlin-1 = Derlin-1 knockdown protein verification by Western blot in MoDCs; type: cell-based, human
Excerpt: FIG. 9. Derlin-1 siRNA knocked down Derlin-1 translation in dendritic cells and B and T cell tumors by western blots. (A) Comparison of two different PEI reagent. Viromer blue vs Viromer red with respect to Cy3-labeled siRNA (B) and toxicity (C). Derlin-1 Knockdown Protein Verification by Western Blot (A). Confirms the knockdown of protein levels in MoDCs by Derlin-1 siRNA #2. For Lanes 1, 2, 5, and 6, the respective knockdowns were 49%, 57%, 67%, and 72%. Scramble included at concentration of 25 nM in wells (3) and (7). Wells (4) and (8) contain RPMI medium only. Mouse Anti-Derlin-1 mAb added at concentration of 1:1000 and Goat Anti-mouse IgG1 added at 1:10,000. (B) Transfection Ability of Viromer red/blue vs Lipofectamine RNAiMax. TAP-deficient T2-cells transfected with cy3-conjugated siRNA at 10 nM using manufacturer's recommended protocol for each reagent. Cells were stained, fixed, and detected 24 hours after transfection. PE laser was used to detect cells on BD LSR II. A shift to the right indicates a more efficient transfection reagent. (C) Cytotoxicity of Viromer RED/BLUE vs Lipofectamine RNAiMax. Extracellular staining of T2 cells with Annexin V was used to determine the number of cells undergoing active apoptosis after transfection with each reagent. BV421 laser was used to detect cells on BD LSR II. Cells were stained, fixed, and detected 24 hours after transfection.
as §2

the three HLA-E preps [6] = test: ELISA: renatured complex captured on anti-HLA-E coated plate, bound biotinylated peptide detected with HRP-avidin; peptide at 0.1 µg/ml
the three HLA-E preps [7] = test: ELISA: renatured complex captured on anti-HLA-E coated plate, bound biotinylated peptide detected with HRP-avidin; peptide at 1.0 µg/ml

Molecule: CC1(C)CCC(C)(C)c2cc(C3(c4ccc(C(=O)O)cc4)OCCO3)ccc21 [SR11237, reference compound]
- HLA-E expression of immature MoDC cells (HLA-E): dramatically induced
- HLA-G expression of immature MoDC cells (HLA-G [1]): little or no effect
- HLA G expression in CD8+ T cells (HLA-G [2]): no further increase

Molecule: 5′-GGACUUGGGAGGAAGAAAUUU-3′ (listed as RNA, chemistry not given here; listed as Homo sapiens) [Derlin siRNA #2]
- Derlin-1 mRNA knockdown (KD) (Derlin-1 mRNA [3]; 25 nM siRNA, Day 1): 49%
- Derlin-1 mRNA knockdown (KD) (Derlin-1 mRNA [3]; 25 nM siRNA, Day 2): 67%
- Derlin-1 mRNA knockdown (KD) (Derlin-1 mRNA [3]; 50 nM siRNA, Day 1): 57%
- Derlin-1 mRNA knockdown (KD) (Derlin-1 mRNA [3]; 50 nM siRNA, Day 2): 72%
- effectiveness in reducing Derlin-1 mRNA levels, compared among siRNAs (Derlin-1 mRNA [3]; monocyte-derived dendritic cells): most effective
- Derlin-1 mRNA knockdown (KD) (Derlin-1 mRNA [4]; T2, 2.5 nM siRNA): 62%
- Derlin-1 mRNA knockdown (KD) (Derlin-1 mRNA [4]; T2, 5 nM siRNA): 43%
- Derlin-1 mRNA knockdown (KD) (Derlin-1 mRNA [4]; T2, 10 nM siRNA): 34%
- effectiveness in reducing Derlin-1 mRNA levels, compared among siRNAs (Derlin-1 mRNA [4]; T2 cells): most effective
- Derlin-1 mRNA knockdown (KD) (Derlin-1 mRNA [5]; B721.221, 5 nM siRNA): 52%
- Derlin-1 mRNA knockdown (KD) (Derlin-1 mRNA [5]; B721.221, 10 nM siRNA): 50%
- Derlin-1 knockdown, FIG. 9 Western blot (Derlin-1; Lane 1): 49%
- Derlin-1 knockdown, FIG. 9 Western blot (Derlin-1; Lane 2): 57%
- Derlin-1 knockdown, FIG. 9 Western blot (Derlin-1; Lane 5): 67%
- Derlin-1 knockdown, FIG. 9 Western blot (Derlin-1; Lane 6): 72%

Molecule: NPRKVTAYL (also: biotinylated, position not given here) [biotinylated HLA-A2 leader peptide (SEQ ID NO: 50, …)]
- OD (the three HLA-E preps [6]): 0.02 OD
- OD (the three HLA-E preps [7]): 0.2 OD and > 0.3 OD
- fold increment of OD (against the 0.02 OD at 0.1 µg/ml peptide) (the three HLA-E preps [7]): 10 fold and 15 fold
